Source: the supplement of paper PMC10307832

Tests used:
Assay in all cases: relative viability (nuclei count vs DMSO), 5 days (fraction); higher = more cells survive
Vismodegib + Linsitinib = compound: CS(=O)(=O)c1ccc(C(=O)Nc2ccc(Cl)c(-c3ccccn3)c2)c(Cl)c1 [Vismodegib] + C[C@]1(O)C[C@@H](c2nc(-c3ccc4ccc(-c5ccccc5)nc4c3)c3c(N)nccn32)C1 [Linsitinib] (partner 1 µM)
In short: (§1)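 Nuclei were stained with Hoechst during a one-step fixation (final 0.05% Triton X-100, 1% formaldehyde, 1 ug/ml Hoechst) carried out 5 days after dosing, then counted on 4× images. The cells, lung cancer lines in 1536-well plates, had been dosed by pin tool the day after seeding with one drug alone or a fixed anchor-drug dose plus five library-drug doses (not always all listed) in √10 steps. Relative viability is the nuclei count in treated wells divided by that in vehicle wells, and each value is the median of duplicate plates.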

Ruxolitinib + Pemetrexed = compound: N#CC[C@H](C1CCCC1)n1cc(-c2ncnc3[nH]ccc23)cn1 [Ruxolitinib] + Nc1nc2[nH]cc(CCc3ccc(C(=O)N[C@@H](CCC(=O)O)C(=O)O)cc3)c2c(=O)[nH]1 [Pemetrexed] (partner 0.2 µM)
In short: as §1

Ruxolitinib + OSI-027 = compound: N#CC[C@H](C1CCCC1)n1cc(-c2ncnc3[nH]ccc23)cn1 [Ruxolitinib] + COc1cccc2cc(-c3nc([C@H]4CC[C@H](C(=O)O)CC4)n4ncnc(N)c34)[nH]c12 [OSI-027] (partner 0.5 µM)
In short: as §1

Ruxolitinib + Luminespib = compound: N#CC[C@H](C1CCCC1)n1cc(-c2ncnc3[nH]ccc23)cn1 [Ruxolitinib] + CCNC(=O)c1noc(-c2cc(C(C)C)c(O)cc2O)c1-c1ccc(CN2CCOCC2)cc1 [Luminespib] (partner 0.01 µM)
In short: as §1

Cell Line | relative viability (Vismodegib + Linsitinib; first compound 0.08 µM) | relative viability (Vismodegib + Linsitinib; first compound 0.253 µM) | relative viability (Vismodegib + Linsitinib; first compound 0.8 µM) | relative viability (Vismodegib + Linsitinib; first compound 2.53 µM) | relative viability (Vismodegib + Linsitinib; first compound 8 µM) | relative viability (Ruxolitinib + Pemetrexed; first compound 0.08 µM) | relative viability (Ruxolitinib + Pemetrexed; first compound 0.253 µM) | relative viability (Ruxolitinib + Pemetrexed; first compound 0.8 µM) | relative viability (Ruxolitinib + Pemetrexed; first compound 2.53 µM) | relative viability (Ruxolitinib + Pemetrexed; first compound 8 µM) | relative viability (Ruxolitinib + OSI-027; first compound 0.08 µM) | relative viability (Ruxolitinib + OSI-027; first compound 0.253 µM) | relative viability (Ruxolitinib + OSI-027; first compound 0.8 µM) | relative viability (Ruxolitinib + OSI-027; first compound 2.53 µM) | relative viability (Ruxolitinib + OSI-027; first compound 8 µM) | relative viability (Ruxolitinib + Luminespib; first compound 0.253 µM) | relative viability (Ruxolitinib + Luminespib; first compound 0.8 µM) | relative viability (Ruxolitinib + Luminespib; first compound 2.53 µM) | relative viability (Ruxolitinib + Luminespib; first compound 8 µM) | relative viability (Ruxolitinib + Luminespib; first compound 0.08 µM)
HCC-366 | 0.628 | 0.636 | 0.575 | 0.563 | 0.703 | 0.162 | 0.193 | 0.155 | 0.192 | 0.147 | 0.984 | 0.771 | 1.01 | 0.819 | 0.828 |  |  |  |  | 
HCC-827 | 0.926 | 0.906 | 0.949 | 0.896 | 1.04 |  | 0.249 | 0.231 | 0.258 | 0.274 |  | 0.516 | 0.586 | 0.537 | 0.714 | 0.578 | 0.679 | 0.519 | 0.562 | 
HOP-62 | 0.988 | 0.873 | 1.16 | 0.748 | 0.979 | 0.324 | 0.363 | 0.299 | 0.314 | 0.323 | 0.874 | 0.724 | 0.91 | 0.825 | 0.824 | 0.946 | 0.934 | 0.927 | 0.686 | 0.879
IA-LM | 0.629 | 0.493 | 0.68 | 0.579 | 0.63 |  |  |  |  |  |  |  |  |  |  |  |  |  |  | 
LC-2-ad | 0.824 | 0.794 | 0.849 | 0.82 | 0.828 | 0.287 | 0.306 | 0.306 | 0.26 | 0.272 |  | 0.667 | 0.859 | 0.733 | 0.524 | 1 | 1 | 0.693 | 0.688 | 
LCLC-97TM1 |  |  | 0.174 |  | 0.211 | 0.21 | 0.21 | 0.184 | 0.175 | 0.147 | 0.502 | 0.3 | 0.362 | 0.488 | 0.563 | 0.657 | 0.78 | 0.626 | 0.904 | 0.617
LCLC-103H | 0.938 | 1.05 | 0.988 | 1.05 | 1.04 | 0.454 | 0.474 | 0.45 | 0.46 | 0.455 | 0.497 | 0.394 | 0.48 | 0.45 | 0.488 | 0.862 | 0.959 | 1.04 | 0.956 | 0.851
LK-2 | 0.427 | 0.49 | 0.539 | 0.46 | 0.378 | 0.291 | 0.276 | 0.308 | 0.234 | 0.29 | 0.222 | 0.187 | 0.18 | 0.182 | 0.214 | 0.157 | 0.187 | 0.203 | 0.168 | 0.184
LOU-NH91 | 0.926 | 0.972 | 0.916 | 0.951 | 0.961 | 0.376 | 0.338 | 0.378 | 0.354 | 0.353 |  | 0.733 | 0.729 | 0.746 | 0.686 | 0.361 | 0.35 | 0.316 | 0.382 | 
LU99A | 0.521 | 0.507 | 0.508 | 0.464 | 0.621 | 0.171 | 0.179 | 0.178 | 0.186 | 0.195 | 0.339 | 0.305 | 0.298 | 0.295 | 0.268 | 0.265 | 0.353 | 0.23 | 0.23 | 0.224
LXF-289 | 0.959 | 0.929 | 0.98 | 0.976 | 0.919 | 0.866 | 0.943 | 0.925 | 0.933 | 0.852 | 0.776 | 0.79 | 0.789 | 0.698 | 0.624 | 0.784 | 0.732 | 0.674 | 0.628 | 0.608
NCI-H23 | 0.591 | 0.511 | 0.643 | 0.488 | 0.677 | 0.779 | 0.787 | 0.755 | 0.708 | 0.564 | 0.743 | 0.617 | 0.696 | 0.496 | 0.522 | 0.209 | 0.242 | 0.214 | 0.191 | 0.195
NCI-H522 |  |  |  |  |  | 1.04 | 0.973 | 1.05 | 0.964 | 0.857 | 0.811 | 0.667 | 0.78 | 0.628 | 0.605 | 1.81 | 1.25 | 0.884 | 1.64 | 1.14
NCI-H727 | 0.336 | 0.319 | 0.286 | 0.376 | 0.239 |  |  |  |  |  | 0.557 | 0.482 | 0.817 | 0.472 | 0.524 | 0.357 | 0.655 | 0.35 | 0.2 | 0.3
NCI-H1299 | 0.979 | 0.952 | 0.994 | 0.929 | 0.991 |  |  |  |  |  |  |  |  |  |  |  |  |  |  | 
NCI-H1623 |  |  |  |  |  |  |  |  |  |  | 0.48 | 0.461 | 0.469 | 0.439 | 0.576 | 0.431 | 0.705 | 0.526 | 0.765 | 0.423
NCI-H1648 |  |  |  |  |  | 0.674 | 0.838 | 0.739 | 0.923 | 1.02 |  | 0.269 | 0.257 | 0.308 | 0.279 |  |  |  |  | 
NCI-H1650 |  |  |  |  |  | 0.311 | 0.43 | 0.351 | 0.333 | 0.346 |  | 0.651 | 0.98 | 0.769 | 0.641 | 0.196 | 0.198 | 0.214 | 0.197 | 
NCI-H1703 | 0.928 | 0.77 | 0.928 | 0.618 | 1.19 |  |  |  |  |  |  |  |  |  |  |  |  |  |  | 
NCI-H2170 |  |  |  |  |  | 0.256 | 0.262 | 0.259 | 0.266 | 0.276 | 0.659 | 0.68 | 0.713 | 0.567 | 0.667 | 0.509 | 0.954 | 0.643 | 0.817 | 0.687
NCI-H2342 |  |  |  |  |  | 0.594 | 0.767 | 0.812 | 0.752 | 0.733 | 0.557 | 0.564 | 0.674 | 0.585 | 0.736 | 0.79 | 0.863 | 0.788 | 0.728 | 0.748
SW 900 |  |  |  |  |  | 0.467 | 0.493 | 0.485 | 0.466 | 0.532 | 0.552 | 0.495 | 0.757 | 0.585 | 0.496 | 0.181 | 0.181 | 0.154 | 0.193 | 0.175
